From publication PMC4026384, “Antibacterial Activity of THAM Trisphenylguanide against Methicillin-Resistant Staphylococcus aureus” (PLoS ONE, 2014)
Converted amounts (≈) assume the structure as drawn. “Also recorded” adds a separate entry of the source. Like-named read-outs stand apart in the source and are kept apart here.

What was measured:
[1] = system: MRSA strain LAC, USA300; test: Minimum inhibitory concentration (microdilution); type: cell-based, Staphylococcus aureus; details: for MIC of control antibiotics: assay described in Material and Methods, controls of the MRSA leakage assay (Figure S2)
Experimental: (§1) Minimum inhibitory concentration (MIC) values were determined for those compounds showing the most antibacterial activity in the bacterial viability assays (see Supplemental Materials) against each of the strains of bacteria using a microdilution method in 96 well plates with LB media according to guidelines published by the British Society for Antimicrobial Chemotherapy. Minimum bactericidal concentrations (MBC) were determined by plating 10 µL and 100 µL from each well showing no signs of growth after overnight incubation of the MIC plates and determining the minimum concentration showing a 3-log reduction of viable bacteria. MIC and MBC were also determined in cation-adjusted Mueller-Hinton broth (Hardy Diagnostics, Santa Maria, CA) for some compounds and strains.

[2] = system: MRSA; test: Cytoplasmic leakage & bacteriolysis assay; type: cell-based, Staphylococcus aureus; details: 1× to 4×MIC, over the 3 hour period
Experimental: Bacteria were cultured to mid-log phase (OD600 ∼0.4) in LB media with shaking. Bacteria were then harvested and resuspended in PBS to a concentration of ∼10^8 CFU/mL. […] Bacteria were monitored over time for cytoplasmic leakage via A260 measurements and for cell viability. For A260 readings, sample aliquots were centrifuged for 5 min at 10,000×g at room temperature to remove cellular debris. Viability was monitored by determining the CFU/mL during the first 3 hours post treatment as described above for the kill curve assays.

[3] = system: HaCaT human keratinocytes; test: Cell toxicity assay (MTS); type: cell-based; details: for CC50: MTS assay, concentration which killed 50% of the cells
Experimental: (§2) The HaCaT cell line was grown in Epilife medium (MEPI500Ca) with human keratinocyte growth supplement (Invitrogen, San Diego, CA). Both types of cells were harvested using Tryspin/EDTA and diluted to 1×10^5 cells per well in a 96-well plate. Ten concentrations covering five orders of magnitude were tested with six replicates per concentration. […] MTS/PMS solution (Promega, Madison, WI) was added to the wells and absorbance was measured at 490 nm two to four hours later. Data was analyzed using GraphPad Prism version 5.0 (GraphPad Software, La Jolla, CA) using a variable slope inhibition dose response curve.

[4] = system: human breast cancer cell line MDA-MB-231; test: Cell toxicity assay (MTS); type: cell-based; details: MDA-231; for CC50: MTS assay, concentration which killed 50% of the cells
Experimental: as §2

[5] = system: E. coli K91; test: Bacterial viability assay; type: cell-based, Escherichia coli; details: one hour in PBS, CFU, ± SEM
Experimental: (§3) Supplementary file pone.0097742.s003.doc: Table S1 Bacterial viability assays. Bacteria were grown at 37°C to mid-log phase (OD600 ∼0.4). The bacteria were diluted to approximately 10^4 to 10^5 colony forming units (CFU) per milliliter and added to a solution of phosphate buffered saline (PBS, 16 mM phosphate, 0.14 M NaCl, pH 7.2) containing the compound at varied concentrations. Samples were incubated at 37°C for one hour and then plated on Luria Bertani (LB) agar at appropriate dilutions in PBS. The plates were incubated overnight at 37°C and colonies enumerated the following day. IC50s were calculated from graphs of CFU as a function of compound concentration. Chlorhexidine was used as a positive control. […] (DOC) Click here for additional data file.
(§4) Bacterial viability assays. Bacteria were grown at 37°C to mid-log phase (OD600 ~0.4). The bacteria were diluted to approximately 10^4 to 10^5 colony forming units (CFU) per milliliter and added to a solution of phosphate buffered saline (PBS, 16 mM phosphate, 0.14 M NaCl, pH 7.2) containing the compound at varied concentrations. Samples were incubated at 37°C for one hour and then plated on Luria Bertani (LB) agar at appropriate dilutions in PBS. The plates were incubated overnight at 37°C and colonies enumerated the following day. IC50s were calculated from graphs of CFU as a function of compound concentration. Chlorhexidine was used as a positive control.

[6] = system: P. aeruginosa PA01; test: Bacterial viability assay; type: cell-based, Pseudomonas aeruginosa; details: one hour in PBS, CFU, ± SEM
Experimental: as §3, §4

[7] = system: A. baumannii ATCC 19606; test: Bacterial viability assay; type: cell-based, Acinetobacter baumannii; details: one hour in PBS, CFU, ± SEM
Experimental: as §3, §4

[8] = system: A. baumannii ATCC BAA1605; test: Bacterial viability assay; type: cell-based, Acinetobacter baumannii; details: one hour in PBS, CFU, ± SEM
Experimental: as §3, §4

[9] = system: E. faecalis MSU#10; test: Bacterial viability assay; type: cell-based, Enterococcus faecalis; details: E. faecalis MSU#10, one hour in PBS, CFU, ± SEM, read-out: IC50
Experimental: as §3, §4

[10] = system: E. faecalis V583; test: Bacterial viability assay; type: cell-based, Enterococcus faecalis; details: one hour in PBS, CFU, ± SEM
Experimental: as §3, §4

[11] = system: S. aureus RN4220; test: Bacterial viability assay; type: cell-based, Staphylococcus aureus; details: one hour in PBS, CFU, ± SEM
Experimental: (§5) Supplementary file pone.0097742.s003.doc: Table S1 Bacterial viability assays. Bacteria were grown at 37°C to mid-log phase (OD600 ∼0.4). The bacteria were diluted to approximately 10^4 to 10^5 colony forming units (CFU) per milliliter and added to a solution of phosphate buffered saline (PBS, 16 mM phosphate, 0.14 M NaCl, pH 7.2) containing the compound at varied concentrations. Samples were incubated at 37°C for one hour and then plated on Luria Bertani (LB) agar at appropriate dilutions in PBS. The plates were incubated overnight at 37°C and colonies enumerated the following day. IC50s were calculated from graphs of CFU as a function of compound concentration. Chlorhexidine was used as a positive control. Included are those guanide (G), biguanide (BG), phenylguanide (ΦG) compounds that had some antibacterial activity in an initial screen at 30 and 100 µM, as well as their and parent amines. Compounds synthesized from 1,4-butanediamine, 1,6-hexanediamine, trisethylaminomelamine, trisbutylaminomelamine, and the dendrimer PAMAM (G0) were not active against E. coli, P aeruginosa, or S. aureus so they were not tested against the remaining bacteria (data not shown). (DOC) Click here for additional data file.
as §5, with “Bacterial” for “Supplementary file pone.0097742.s003.doc: Table S1 Bacterial”, “~0.4).” for “∼0.4).”, “μM,” for “µM,”, “shown).” for “shown). (DOC) Click here for additional data file.”

[12] = system: MRSA USA300; test: Bacterial viability assay; type: cell-based, Staphylococcus aureus; details: one hour in PBS, CFU, ± SEM
Experimental: as §3, §4

[13] = Cell toxicity assay (MTS); type: cell-based, human; details: human, MTS assay, concentration which killed 50% of the cells
Experimental: as §2

[14] = system: Acinetobacter baumannii ATCC 19606; test: Minimum inhibitory concentration (microdilution); type: cell-based; details: A. baumannii ATCC 19606; LB media; median of at least 3 determinations
Experimental: as §1

[15] = system: Enterococcus faecalis ATCC V583; test: Minimum inhibitory concentration (microdilution); type: cell-based; details: E. faecalis V583; LB media; median of at least 3 determinations
Experimental: as §1

[16] = system: Enterococcus faecalis MSU#10; test: Minimum inhibitory concentration (microdilution); type: cell-based; details: E. faecalis MSU#10; LB media; median of at least 3 determinations
Experimental: as §1

[17] = system: Escherichia coli (strain K91); test: Minimum inhibitory concentration (microdilution); type: cell-based; details: E. coli K91; LB media; median of at least 3 determinations
Experimental: as §1

[18] = system: Pseudomonas aeruginosa (strain PA01); test: Minimum inhibitory concentration (microdilution); type: cell-based; details: P. aeruginosa PA01; LB media; median of at least 3 determinations
Experimental: as §1

[19] = system: Staphylococcus aureus RN4220; test: Minimum inhibitory concentration (microdilution); type: cell-based; details: S. aureus RN4220; LB media; median of at least 3 determinations
Experimental: as §1

[20] = MDA-MB-231 breast cancer cells (ATCC HTB-26), MDA-231
[21] = Acinetobacter baumannii, ATCC19606, 1 h
[22] = Acinetobacter baumannii, ATCCBAA1605, 1 h

SMILES | Relative to chlorhexidine (factor by which cytotoxicity was reduced) [3] | CC50 [3] [µg/mL] | Relative to chlorhexidine (factor by which cytotoxicity was reduced) [4] | CC50 [4] [µg/mL] | IC50 [5] [µM] | IC50 [6] [µM] | IC50 [7] [µM] | IC50 [8] [µM] | IC50 [9] [µM] | IC50 [10] [µM] | IC50 [11] [µM] | IC50 [12] [µM] | further results
CC1(C)S[C@@H]2[C@H](NC(=O)[C@H](N)c3ccccc3)C(=O)N2[C@H]1C(=O)O [Ampicillin] |  |  |  |  |  |  |  |  |  |  |  |  | MIC of control antibiotics [1]: 32 µg/mL; change in A260 of culture supernatant (cytoplasmic leakage), control antibiotics [2]: no increase in A260; also recorded: Significant increases in A260 were not seen
N=C(NCCCCN(CCCNC(=N)Nc1ccccc1)C(=N)Nc1ccccc1)Nc1ccccc1 [Spermidine-3ΦG] | 210 | 400 (≈ 801 µM) | 170 | 430 (≈ 861 µM) | 3.2 ± 0.9 | > 100 | > 100 | > 100 | > 100 | > 100 | > 100 | > 100 | 
NCCCCNCCCN [Spermidine] | >79 |  | 8.5 |  |  |  |  |  |  |  |  |  | CC50 ([13]; HaCaT keratinocytes): > 150 µg/mL; CC50 [13, 20]: 22 µg/mL (≈ 151 µM); IC50 ([5]; Escherichia coli, 1 h): > 100 µM; IC50 ([6]; Pseudomonas aeruginosa, 1 h): > 100 µM; IC50 [7, 21]: > 100 µM; IC50 [8, 22]: > 100 µM; IC50 ([9]; Enterococcus faecalis, 1 h): > 100 µM; IC50 ([10]; Enterococcus faecalis, 1 h): > 100 µM; IC50 ([11]; Staphylococcus aureus, 1 h): > 100 µM; IC50 ([12]; Staphylococcus aureus, 1 h): > 100 µM
N=C(NCCCN(CCCCN(CCCNC(=N)Nc1ccccc1)C(=N)Nc1ccccc1)C(=N)Nc1ccccc1)Nc1ccccc1 [Spermine-4ΦG] | 56 | 110 (≈ 163 µM) | >43 | >110 | 23 ± 16 | > 100 | ≥ 100 | ≥ 100 | > 100 | > 100 |  | > 100 | 
NCCCNCCCCNCCCN [Spermine] | >110 |  | 3.7 |  |  |  |  |  |  |  |  |  | CC50 ([13]; HaCaT keratinocytes): > 200 µg/mL; CC50 [13, 20]: 10 µg/mL (≈ 49.4 µM); IC50 ([5]; Escherichia coli, 1 h): > 100 µM; IC50 ([6]; Pseudomonas aeruginosa, 1 h): ≥ 100 µM; IC50 [7, 21]: ≥ 100 µM; IC50 [8, 22]: 79 ± 24 µM; IC50 ([9]; Enterococcus faecalis, 1 h): > 100 µM; IC50 ([10]; Enterococcus faecalis, 1 h): > 100 µM; IC50 ([11]; Staphylococcus aureus, 1 h): > 100 µM; IC50 ([12]; Staphylococcus aureus, 1 h): > 100 µM
N=C(N)NCCCCCCNc1nc(NCCCCCCNC(=N)N)nc(NCCCCCCNC(=N)N)n1 [THAM-3G] | 33 | 63 (≈ 115 µM) | 29 | 74 (≈ 135 µM) | 31 ± 12 | 14 ± 3 | 23 ± 14 | 14 ± 4 | > 100 | > 100 | > 100 | > 100 | 
NCCCCCCNc1nc(NCCCCCCN)nc(NCCCCCCN)n1 [THAM] | 100 | 200 (≈ 472 µM) | >290 | >770 | > 100 | > 100 | > 100 | > 100 | > 100 | > 100 | > 100 | > 100 | 
N=C(NCCCCCCCCNc1nc(NCCCCCCCCN)nc(NCCCCCCCCNC(=N)Nc2ccccc2)n1)Nc1ccccc1 [TOAM-2ΦG] | 1.6 | 3.1 (≈ 4.17 µM) |  |  | 0.75 ± 0.09 | 1.6 ± 0.4 | 0.64 ± 0.19 | 0.96 ± 0.02 | 6.1 ± 4.9 | 11 ± 3 | 2.4 ± 0.1 | 0.6 ± 0.32 | 
N=C(N)NCCCCCCCCNc1nc(NCCCCCCCCNC(=N)N)nc(NCCCCCCCCNC(=N)N)n1 [TOAM-3G] | 1.9 | 3.6 (≈ 5.68 µM) |  |  | 0.68 ± 0.04 | 0.85 ± 0.19 | 2.6 ± 1.1 | 0.92 ± 0.1 | 5 ± 1.9 | 23 ± 14 | 4.7 ± 0.1 | 1.5 ± 0.6 | MIC [14]: >64 µg/mL; MIC [15]: >64 µg/mL; MIC [16]: 16 µg/mL (≈ 25.2 µM); MIC [17]: 8 µg/mL (≈ 12.6 µM); MIC [18]: 16 µg/mL (≈ 25.2 µM); MIC [19]: 2 µg/mL (≈ 3.15 µM); MIC ([1]; MRSA USA300, LB media, median of at least 3 determinations): 1 µg/mL (≈ 1.58 µM)
CNC(C)C1CCC(N)C(OC2C(N)CC(N)C(OC3OCC(C)(O)C(NC)C3O)C2O)O1 (stereo not drawn) [gentamicin] |  |  |  |  |  |  |  |  |  |  |  |  | MIC of control antibiotics [1]: 0.5 µg/mL; change in A260 of culture supernatant (cytoplasmic leakage), control antibiotics [2]: no increase in A260; also recorded: Significant increases in A260 were not seen
